The test system of experiment [1] is human cholangiocarcinoma-derived cell line HuCC-T1. Briefly: Cell viability (CellTiter Glo) of HuCC-T1 in combination with cisplatin. The class given is cell-based. Conditions: for viability at 0.0015 µM / viability at 0.0046 µM / viability at 0.0137 µM / viability at 0.0412 µM / viability at 0.1235 µM / viability at 0.3704 µM / viability at 1.1111 µM / viability at 3.3333 µM / viability at 10 µM / IC50: Homo sapiens; for viability at 0.0015 µM / viability at 0.0046 µM / viability at 0.0137 µM / viability at 0.0412 µM / viability at 0.1235 µM / viability at 0.3704 µM / viability at 1.1111 µM / viability at 3.3333 µM / viability at 10 µM: HuCCT-1, 72 h, with cisplatin 10 μmol/L, 3 days; for viability at 0.0015 µM: test substance 1.5 nM; for viability at 0.0046 µM: test substance 4.6 nM; for viability at 0.0137 µM: test substance 13.7 nM; for viability at 0.0412 µM: test substance 41.2 nM; for viability at 0.1235 µM: test substance 123.5 nM; for viability at 0.3704 µM: test substance 370.4 nM; for viability at 1.1111 µM: test substance 1111.1 nM; for viability at 3.3333 µM: test substance 3333.3 nM; for viability at 10 µM: test substance 10000.0 nM; for IC50: HuCCT-1, used in combination with cisplatin (10 μmol/L, Table 8); for CI: combination with cisplatin. The text has this: (§1) On the combinational effect of the embodiment of the invention, the results of evaluation using a combination index (CI) which is a quantitative index of the combinational effect are shown. The CI can be calculated by the following equation according to Cancer Research, 2010, Vol. 70, pp. 440 to 446.
(§2) That is, in a case where the drugs to be used in combination are drug 1 and drug 2, the CI at a certain drug concentration is
(§3) CI={(cell viability in case of using drug 1 and drug 2 in combination)/100}/{[(cell viability in case of using drug 1)/100]×[(cell viability in case of using drug 2)/100]}
Evaluation of antitumor activity against human cholangiocarcinoma-derived cell line HuCC-T1 in combination with cisplatin
Furthermore, the antitumor activity against the human cholangiocarcinoma-derived cell line HuCC-T1 in combination with cisplatin was evaluated in the same manner as in Test Example 1.
(§4) Gemcitabine, cisplatin, and methanesulfonate of Compound A were used as test substances.
Gemcitabine hydrochloride (manufactured by Plantex Co., Ltd.) dissolved in DMSO was used as gemcitabine. Cisplatin (Cat. #039-20091, manufactured by Wako Pure Chemical Industries, Ltd.) dissolved in serum-free RPMI-1640 medium (Cat. #11875-119, manufactured by Thermo Fisher Scientific Inc.) was used as cisplatin.
Human cholangiocarcinoma cell line HuCC-T1 cells were subcultured in RPMI-1640 medium supplemented with 10% serum (Cat. #10437-028, manufactured by Thermo Fisher Scientific Inc.). During this test, all cell cultures were carried out in a CO2 incubator (set to 37° C. and 5% CO2, saturated with water vapor). The culture was diluted with a 10% serum-supplemented medium to a cell density of 15000 cells/well/100 μL and the cells were seeded on a 96-well plate. On the next day, the culture supernatant of each well was discarded, followed by washing twice with 150 μL of serum-free medium, and 100 μL of serum-free medium was added thereto, followed by culturing for 3 days.
The methanesulfonate of Compound A and gemcitabine were dissolved in DMSO to prepare […] DMSO solutions thereof. The thus-prepared DMSO solutions were diluted sequentially with DMSO to prepare DMSO solutions having a final treatment concentration of 1000-fold dilution. Cisplatin was dissolved in serum-free medium to prepare a cisplatin solution 60 μmol/L. The DMSO diluted solutions of Compound A and gemcitabine were diluted with the cisplatin solution (60 μmol/L) to prepare treatment liquids having a final treatment concentration of 6-fold dilution. Compound A and gemcitabine were used with a maximum concentration of 10 μmol/L at a common ratio of 1/3 and 9 concentrations in combination with cisplatin.
20 μL of Compound A or gemcitabine diluted with the cisplatin solution (60 μmol/L) was added to each well. In addition, a group in which only a solvent containing no drug was added to wells in which cells were seeded (positive control), and a group in which only a solvent containing no drug was added to wells containing only a medium (negative control) were provided. All groups were set to n=3 well.
(§5) The cells were cultured for 3 days after the addition of the drug, and the cell viability was evaluated using a CellTiter Glo (registered trademark) Reagent (Cat. #G7570, manufactured by Promega Corporation) with the intracellular ATP level as an index. The concentration that inhibits cell viability by 50% (IC50 value) was calculated using XLFit software Ver.3 (registered trademark, manufactured by CTC Laboratory Systems Corporation).
The cell viability of each well was determined with the luminescence signal level of the negative control being 0% cell viability and the luminescence signal level of the positive control being 100% cell viability. The average value and standard deviation of the cell viability of each treatment group were calculated to prepare Table 8.

The subject of experiment [2] is cholangiocarcinoma cell line HuCC-T1 (spheroid culture). In words: Cell viability (CellTiter Glo) of HuCC-T1 in spheroid culture in combination with cisplatin. As to conditions: for viability at 0.001 µM / viability at 0.003 µM / viability at 0.01 µM / viability at 0.03 µM / viability at 0.1 µM / viability at 0.3 µM / viability at 1 µM / viability at 3 µM / viability at 10 µM / IC50: Homo sapiens; for viability at 0.001 µM / viability at 0.003 µM / viability at 0.01 µM / viability at 0.03 µM / viability at 0.1 µM / viability at 0.3 µM / viability at 1 µM / viability at 3 µM / viability at 10 µM: HuCCT-1, 72 h, HuCC-T1 spheroid, with cisplatin 10 μmol/L, 3 days; for viability at 0.001 µM: test substance 1.0 nM; for viability at 0.003 µM: test substance 3.0 nM; for viability at 0.01 µM: test substance 10.0 nM; for viability at 0.03 µM: test substance 30.0 nM; for viability at 0.1 µM: test substance 100.0 nM; for viability at 0.3 µM: test substance 300.0 nM; for viability at 1 µM: test substance 1000.0 nM; for viability at 3 µM: test substance 3000.0 nM; for viability at 10 µM: test substance 10000.0 nM; for IC50: HuCCT-1, in combination with cisplatin (10 μmol/L); for IC50 / CI: HuCC-T1 spheroid culture; for CI: combination with cisplatin. The class given is cell-based, human.
Text: as §1, §2, §3
Evaluation of Antitumor Activity Against Cholangiocarcinoma Cell Line HuCC-T1 by Combined Use of Cisplatin in Spheroid Culture
as §4
Gemcitabine hydrochloride (manufactured by Plantex Co., Ltd.) dissolved in dimethyl sulfoxide (DMSO) was used as gemcitabine. Cisplatin (Cat. #039-20091, manufactured by Wako Pure Chemical Industries, Ltd.) dissolved in DMSO was used as cisplatin.
The cholangiocarcinoma cell line HuCC-T1 cells were subcultured in RPMI-1640 medium supplemented with 10% serum (Cat. #10437-028, manufactured by Thermo Fisher Scientific Inc.). During this test, all cell cultures were carried out in a CO2 incubator (set to 37° C. and 5% CO2, saturated with water vapor). The culture was diluted with 10% serum-supplemented medium to a cell density of 5000 cells/well/100 μL, and seeded on an Ultra-Low Attachment 96-well plate (Cat. #7007, manufactured by Corning Incorporated). The cells were cultured for 4 days to form spheroids.
The methanesulfonate of Compound A and gemcitabine were dissolved in DMSO to prepare 10 mmol/L DMSO solutions thereof. The thus-prepared DMSO solutions were diluted sequentially with DMSO to prepare DMSO solutions having a final treatment concentration of 1000-fold dilution. Cisplatin was dissolved in DMSO to prepare a 100 mmol/L DMSO solution. The thus-prepared DMSO solution of cisplatin was diluted with DMSO to prepare a DMSO solution having a final treatment concentration of 5000-fold dilution. Further, the DMSO solution of cisplatin was diluted with 10% serum-supplemented medium to prepare a cisplatin-containing medium having a final treatment concentration of 10-fold dilution. The DMSO diluted solutions of Compound A and gemcitabine were diluted with the cisplatin-containing medium to prepare treatment liquids having a final treatment concentration of 10-fold dilution. Compound A and gemcitabine were used with a maximum concentration of 10 μmol/L at a common ratio of 1/3 and 9 concentrations in combination with cisplatin (10 μmol/L).
10 μL of Compound A or gemcitabine diluted with the cisplatin-containing medium was added to each well. In addition, a group in which only a solvent containing no drug was added to wells in which cells were seeded (positive control), and a group in which only a solvent containing no drug was added to wells containing only a medium (negative control) were provided. All groups were set to n=3 well.
as §5
The cell viability of each well was determined with the luminescence signal level of the negative control being 0% cell viability and the luminescence signal level of the positive control being 100% cell viability. The average value and standard deviation of the cell viability of each treatment group were calculated to prepare Table 10.

`Nc1ccn([C@@H]2O[C@H](CO)[C@@H](O)C2(F)F)c(=O)n1` [Gemcitabine]: in experiment [1], the viability at 0.0015 µM was 114%, the viability at 0.0046 µM was 113%, the viability at 0.0137 µM stood at 116% and the viability at 0.0412 µM was 113%. Also, in experiment [1], the viability at 0.1235 µM came out at 116%, the viability at 0.3704 µM was found to be 113%, the viability at 1.1111 µM came to 103% and the viability at 3.3333 µM was found to be 83%. For the same compound, in experiment [1], the viability at 10 µM came to 56%, the IC50 is no less than 10000 nM and the CI is 0.90. Further, in experiment [2], the viability at 0.001 µM came to 94%, the viability at 0.003 µM stood at 96%, the viability at 0.01 µM was determined as 94% and the viability at 0.03 µM was determined as 90%. For the same compound, in experiment [2], the viability at 0.1 µM came to 88%, the viability at 0.3 µM was 84%, the viability at 1 µM is 79% and the viability at 3 µM came out at 73%. Also, in experiment [2], the viability at 10 µM came to 50%, the IC50 was no less than 10000 nM and the CI was 0.79.

Turning to `Nc1ccn([C@@H]2S[C@H](CO)[C@@H](O)[C@@H]2F)c(=O)n1` [Compound A, 1-(2-deoxy-2-fluoro-4-thio-β-D-arabinofuranosyl)cytosine], in experiment [1], the viability at 0.0015 µM amounted to 117%, the viability at 0.0046 µM is 114%, the viability at 0.0137 µM stood at 110% and the viability at 0.0412 µM was 96%. In addition, in experiment [1], the viability at 0.1235 µM amounted to 66%, the viability at 0.3704 µM came to 44%, the viability at 1.1111 µM is 40% and the viability at 3.3333 µM came to 36%. In addition, in experiment [1], the viability at 10 µM came out at 34%, the IC50 came out at 261 nM and the CI came to 0.34. Also, in experiment [2], the viability at 0.001 µM was 95%, the viability at 0.003 µM came out at 93%, the viability at 0.01 µM came to 87% and the viability at 0.03 µM worked out at 77%. Further, in experiment [2], the viability at 0.1 µM was 58%, the viability at 0.3 µM is 41%, the viability at 1 µM turned out to be 36% and the viability at 3 µM was 35%. Moreover, in experiment [2], the viability at 10 µM worked out at 34%, the IC50 amounted to 165 nM and the CI is on record as 0.42.

For the origin of these results see patent US20200405752A1, “ANTITUMOR AGENT, ANTITUMOR EFFECT ENHANCER, AND ANTITUMOR KIT” (FUJIFILM Corporation, priority 2018, published 2020).
